Results: PMC11831190 (MedComm, 2025)
Read-outs that look alike come from different tables or passages of the source.

Assay: Pharmacokinetic evaluation of Oraxol in patients with MBC (weeks 1 and 4)
Assay type: in vivo, human
Conditions: for AUC(0-t) / Cmax / Tmax: human, in vivo, oral; for AUC(0-t): read-out: AUC (0-52) Mean
Procedure: Similarly, patients were readmitted to the clinic the preceding night dosing on week 4, day 1, and remained at the clinic until pharmacokinetic sampling was completed on Day 3 of that week.
Analytical determination of pharmacokinetic parameters was conducted in patients who provided at least one post‐dose blood sample. The study weeks were counted consecutively starting from week 1 for pharmacokinetic sampling. However, for week 4 pharmacokinetic sampling, a delay was permitted at the investigator's discretion to allow the relevant time to recuperate from any intolerable toxicity, if present. In the instance of treatment postponement, pharmacokinetic samples for week 4 were collected immediately after treatment resumed, regardless of whether a dose reduction were applied.
The pharmacokinetic parameters were synthesized utilizing descriptive data analysis, including mean, standard deviation, median, minimum, and maximum values. What is more, summaries of pharmacokinetic parameters included the geometric average and the coefficient of variation. Individual concentration data and corresponding area under the AUC timepoint data were tabulated in both nominal and actual sampling times for all patients. The concentration‐timepoint data (in actual times) were presented graphically for each subject.
The pharmacokinetic parameters were analyzed using logarithmic transformation, followed by statistical evaluation through analysis of variance, considering subject and treatment effects. […] This analysis allowed for the assessment of the pharmacokinetic profile of Oraxol over the course of treatment.

Structure (SMILES)	Tmax (0-24) Median (Study day 1) [h]	Tmax (0-24) Median (Study day 22) [h]	AUC(0-t) (Study day 1) [µg·h/mL]	Cmax (Study day 1, read-out: Cmax (0-24) Mean) [µg/mL]	Cmax (Study day 1, read-out: Cmax (24-48) Mean) [µg/mL]	Cmax (Study day 1, read-out: Cmax (48-52) Mean) [µg/mL]	Cmax (Study day 1, read-out: Cmax Mean) [µg/mL]	Tmax (Study day 1, read-out: Tmax (24-48) Median) [h]	Tmax (Study day 1, read-out: Tmax (48-52) Median) [h]	AUC(0-t) (Study day 22) [µg·h/mL]	Cmax (Study day 22, read-out: Cmax (0-24) Mean) [µg/mL]	Cmax (Study day 22, read-out: Cmax (24-48) Mean) [µg/mL]	Cmax (Study day 22, read-out: Cmax (48-52) Mean) [µg/mL]	Cmax (Study day 22, read-out: Cmax Mean) [µg/mL]	Tmax (Study day 22, read-out: Tmax (24-48) Median) [h]	Tmax (Study day 22, read-out: Tmax (48-52) Median) [h]
COc1cc2c(cc1OC)CN(CCc1ccc(-n3nnc(-c4cc(OC)c(OC)cc4NC(=O)c4cc(=O)c5ccccc5o4)n3)cc1)CC2.CS(=O)(=O)O.O [HM30181A, HM30181A methanesulfonate monohydrate]	5	4.5	–	–	–	–	–	–	–	–	–	–	–	–	–	–
CC(=O)O[C@H]1C(=O)[C@@]2(C)[C@H]([C@H](OC(=O)c3ccccc3)[C@]3(O)C[C@H](OC(=O)[C@H](O)[C@@H](NC(=O)c4ccccc4)c4ccccc4)C(C)=C1C3(C)C)[C@]1(OC(C)=O)CO[C@@H]1C[C@@H]2O [Paclitaxel]	1	1	3.54	0.288	0.338	0.325	0.404	25.5	49.3	3.52	0.329	0.289	0.313	0.399	25	49
